Experiments:
Type in all cases: in vivo
[1] = system: Amaranthus palmeri; assay: Field experiment, pre-emergence herbicidal activity on bare ground; conditions: AMAPA, Preem, Saflufenacil 25, Flumioxazin 71.4 g ai/ha
Description: (§1) Trial Objective: Efficacy of Saflufenacil in tank mix with Flumioxazin applied in pre-emergence of the weeds on bare ground.
(§2) On field test sites, natural weed infestation was treated, pre-emergence of the weeds on bare soil or post-emergence of the weeds.
(§3) For the pre-emergence treatment, the active compounds, suspended or emulsified in water, were applied by means of finely distributing nozzles on bare ground.
(§4) In the following experiments, the herbicidal activity for the individual herbicidal compositions (solo and mixture applications) was assessed up to 36 days after treatment (DAT). The assessments for the damage on undesired weeds caused by the chemical compositions was carried out using a scale from 0 to 100%, compared to the untreated control plants. Here, 0 means no damage and 100 means complete destruction of the plants.
(§5) [formula] • where X=effect in percent using herbicide (A) at an application rate a; • Y=effect in percent using herbicide (B) at an application rate b; • E=expected effect (in %) of herbicide (A)+herbicide (B) at application rates a+b.
(§6) The value E corresponds to the effect (plant damage or injury) which is to be expected if the activity of the individual compounds is additive. If the observed effect is higher than the value E calculated according to the Colby equation, a synergistic effect is present.

[2] = system: Ambrosia trifida; assay: as above; conditions: AMBTR, Preem, Saflufenacil 50, Flumioxazin 71.4 g ai/ha
Description: as §1, §2, §3, §4, §5, §6

[3] = system: Digitaria sanguinalis; assay: as above; conditions: DIGSA, Preem, Saflufenacil 25, Flumioxazin 71.4 g ai/ha
Description: as §1, §2, §3, §4, §5, §6

[4] = system: Setaria faberi; assay: as above; conditions: SETFA, Preem, Saflufenacil 50, Flumioxazin 71.4 g ai/ha
Description: as §1, §2, §3, §4, §5, §6

[5] = system: Eleusine indica; assay: as above; conditions: ELEIN
Description: as §1
(§7) Trial Objective: Efficacy of Saflufenacil in tank mix with Sulfentrazone applied in pre-emergence of the weeds on bare ground.
as §2, §3, §4, §5, §6

[6] = system: Urochloa texana; assay: as above; conditions: PANTE
Description: as §1, §7, §2, §3, §4, §5, §6

[7] = system: Abutilon theophrasti; assay: Greenhouse experiment, post emergence herbicidal activity; conditions: ABUTH
Description: (§8) For the post emergence treatment, the plants were first grown to the 2 to 4 leaf stage (GS 12/14). The plants were cultivated due to their individual requirements at 10-25° C. and 20-35° C. The plants were irrigated as required.
(§9) Here, the herbicidal compositions were suspended or emulsified in water as distribution medium and sprayed using finely distributing nozzles. 1% methylated seed oil (MSO) has been added as adjuvant to each of the solo and mixture treatments.
(§10) In the greenhouse experiments, the herbicidal activity for the individual herbicidal compositions (solo and mixture applications) was assessed 20/21 days after treatment (DAT).
(§11) The evaluation for the damage on undesired weeds caused by the chemical compositions was carried out using a scale from 0 to 100%, compared to the untreated control plants. Here, 0 means no damage and 100 means complete destruction of the plants.

[8] = system: Ambrosia artemisiifolia; assay: as above; conditions: AMBEL
Description: as §8, §9, §10, §11

[9] = system: Chenopodium album; assay: as above; conditions: CHEAL, BBCH 12-14, Saflufenacil 4, Clethodim 30 g ai/ha
Description: as §8, §9, §10, §11

[10] = system: Convolvulus arvensis; assay: as above; conditions: CONAR
Description: as §8, §9, §10, §11

[11] = system: Echinochloa crus-galli; assay: as above; conditions: ECHCG, BBCH 12-14, Saflufenacil 4, Fomesafen 123 g ai/ha
Description: as §8, §9, §10, §11

[12] = system: Erigeron canadensis; assay: as above; conditions: ERICA, BBCH 12-14, Saflufenacil 1, Flumioxazin 2 g ai/ha
Description: as §8, §9, §10, §11

[13] = system: Hibiscus trionum; assay: as above; conditions: HIBTR
Description: as §8, §9, §10, §11

[14] = system: Matricaria chamomilla; assay: as above; conditions: MATCH
Description: as §8, §9, §10, §11

[15] = system: Mercuralis annua; assay: as above; conditions: MERAN, BBCH 12-14, Saflufenacil 0.5, Bifenox 168 g ai/ha
Description: as §8, §9, §10, §11

[16] = system: Papaver rhoeas; assay: as above; conditions: PAPRH, BBCH 12-14, Saflufenacil 0.5, Bifenox 168 g ai/ha
Description: as §8, §9, §10, §11

[17] = system: Polygonum aviculare; assay: as above; conditions: POLAV
Description: as §8, §9, §10, §11

[18] = system: Setaria viridis; assay: as above; conditions: SETVI
Description: as §8, §9, §10, §11

[19] = system: Sonchus arvensis; assay: as above; conditions: SONAR, BBCH 12-14, Saflufenacil 0.5, Clethodim 30 g ai/ha
Description: as §8, §9, §10, §11

[20] = system: Sorghum halepense; assay: as above; conditions: SORHA
Description: as §8, §9, §10, §11

[21] = preemergence, Saflufenacil 25, Sulfentrazone 210 g ai/ha
[22] = BBCH 12-14, Saflufenacil 1, Bifenox 168 g ai/ha
[23] = BBCH 12-14, Saflufenacil 1, Imazamox 10 g ai/ha
[24] = BBCH 12-14, Saflufenacil 0.5, Clethodim 30 g ai/ha
[25] = BBCH 12-14, Saflufenacil 1, Flumioxazin 2 g ai/ha

For `CC(C)N(C)S(=O)(=O)NC(=O)c1cc(-n2c(=O)cc(C(F)(F)F)n(C)c2=O)c(F)cc1Cl` [Saflufenacil, 2-chloro-5-[3,6-dihydro-3-methyl-2,6-dioxo-4-(trifluoromethyl)-1-(2H)pyrimidinyl]-4-fluoro-N-[[methyl (1-methylethyl)amino]-sulfonyl]benzamide], the “% Herbicidal activity” value [1] was 27%, the “% Herbicidal activity” value [2] was 67% and the “% Herbicidal activity” value [3] was 7%. For the same molecule, the “% Herbicidal activity” value [4] was 37%, the “% Herbicidal activity” value ([5]; Preem, Saflufenacil 25, Flumioxazin 71.4 g ai/ha) was 3% and the “% Herbicidal activity” value [5, 21] was 8%. The “% Herbicidal activity” value ([6]; Preem, Saflufenacil 50, Flumioxazin 71.4 g ai/ha) was 13%, the “% Herbicidal activity” value [6, 21] was 20% and the “% Herbicidal activity” value [7, 22] was 90%. For the same molecule, the “% Herbicidal activity” value ([7]; BBCH 12-14, Saflufenacil 2, Fomesafen 1 g ai/ha) was 70%, the “% Herbicidal activity” value [8, 22] was 80% and the “% Herbicidal activity” value ([8]; BBCH 12-14, Saflufenacil 1, Clethodim 30 g ai/ha) was 80%. The “% Herbicidal activity” value [8, 23] was 80%, the “% Herbicidal activity” value ([8]; BBCH 12-14, Saflufenacil 1, Tribenuron-methyl 6 g ai/ha) was 80% and the “% Herbicidal activity” value [9] was 95%. The “% Herbicidal activity” value [10, 24] was 30%, the “% Herbicidal activity” value ([10]; BBCH 12-14, Saflufenacil 0.5, Halauxifen 1 g ai/ha) was 30% and the “% Herbicidal activity” value [10, 22] was 80%. The “% Herbicidal activity” value [11] was 85%, the “% Herbicidal activity” value [12] was 90% and the “% Herbicidal activity” value [13, 24] was 80%. The “% Herbicidal activity” value ([13]; BBCH 12-14, Saflufenacil 0.5, Flumioxazin 2 g ai/ha) was 80%, the “% Herbicidal activity” value [14, 24] was 45% and the “% Herbicidal activity” value [14, 25] was 45%. The “% Herbicidal activity” value [14, 23] was 45%, the “% Herbicidal activity” value ([14]; BBCH 12-14, Saflufenacil 2, Halauxifen 1 g ai/ha) was 98% and the “% Herbicidal activity” value [15] was 60%. The “% Herbicidal activity” value [16] was 95%, the “% Herbicidal activity” value [17, 24] was 75% and the “% Herbicidal activity” value [17, 25] was 3%. The “% Herbicidal activity” value ([18]; BBCH 12-14, Saflufenacil 0.5, Imazamox 10 g ai/ha) was 25%, the “% Herbicidal activity” value [18, 25] was 70% and the “% Herbicidal activity” value [19] was 98%. For the same molecule, the “% Herbicidal activity” value ([20]; BBCH 12-14, Saflufenacil 4, Bifenox 168 g ai/ha) was 60% and the “% Herbicidal activity” value ([20]; BBCH 12-14, Saflufenacil 4, Flumioxazin 2 g ai/ha) was 60%.
